In a melting point compilation (Tetko et al.; mined from patent text by program, amines drawn as free bases though some values may be those of a salt):

Row | melting point | SMILES
1 | 105 to 107 °C | CCOC(=O)Cc1cc(Br)c(SC(=O)N(C)C)c(Br)c1
2 | 169 to 171 °C | COc1cccc(OC)c1CNC(=O)c1ccc2cnccc2n1
3 | 218 to 220 °C | CC(=O)N(C)c1cccc(-c2nc(=O)c3ccccc3s2)n1
4 | 55 to 56 °C | CC1(C)C2CCC(C2)C1CCC(O)CCC1C2CCC(C2)C1(C)C (centres undefined)
5 | 163 °C | FC(F)(F)c1ccc(-c2cc(C(F)(F)F)n3ncc(-c4cccnc4)c3n2)cc1
6 | 299 °C | Fc1ccc(-c2nc3n(c2-c2ccnc(Nc4ccccc4)c2)CCS3)cc1
7 | 82 to 84 °C | CCOC(=O)c1cc(-c2ccc(Cl)cc2)n(O)c1C(=O)OCC
8 | 234 to 237 °C | O=C(O)c1ccc(CN2C(=O)C3(COc4cc5c(cc43)OCCO5)c3ccccc32)cc1 (centres undefined)
9 | 64.5 to 71 °C | OC1CCCC(c2ccccc2)O1 (centres undefined)
10 | 196 to 198 °C | COc1ccc(-c2cc3nc(N4CCC4)c4ccccc4c3nn2)cc1
11 | 162 to 165 °C | O=[N+]([O-])c1cccc(-c2nnc(Cl)s2)c1
12 | 229 to 233 °C | COC(=O)c1cc2cc(OC)c(OC)cc2c(-c2ccnc(N3C(=O)CCc4ccccc43)c2)c1C(=O)OC
13 | 148 to 150 °C | CC(C)(C)c1ccc(C(=O)O)c(C(=O)O)c1
14 | 161 °C | Cc1cccc(Nc2nnc(C3OCOCO3)c3ccccc23)c1
15 | 232 °C | NC(=O)C(Nc1ccc(Cl)cc1)c1c(Cl)ccc(N)c1Cl (centres undefined)
16 | 110 to 115 °C | O=C(NCc1ccc(C=NNO)cc1)C1Cc2ccccc2N1S(=O)(=O)c1ccc(-c2cccc(C(F)(F)F)c2)cc1 (centres undefined)
17 | 90 to 92 °C | Cc1cc(SC2=C(O)CC(C3CCCC3)(C3CCCC3)OC2=O)c(C(C)(C)C)cc1OCCO
18 | > 300 °C | Cn1c(=O)c(-c2c(Cl)cccc2Cl)cc2cnc(Nc3cccc(C(=O)O)c3)nc21
19 | 112 to 113 °C | CCOC(=O)c1[nH]c(COC)nc1C(C)(C)O
20 | > 270 °C | Cc1c(C#N)ccc2nc(N)nc(N)c12
21 | 92 °C | Cc1cc(CBr)nc2ccccc12
22 | 219 to 222 °C | CCOC(=O)c1cnc2c(c1O)CCCCCC2
23 | 298 °C | COc1ccc(-c2[nH]nc3c2C(=O)c2c(NC(=O)CN4CCSCC4)cccc2-3)cc1
24 | 250 °C | CC(C)(C)c1cc(C(=O)O)c(Cl)c(C(=O)O)c1

Row | melting point | SMILES
25 | 255 to 256 °C | COc1ccc2cc3c(c(-c4ccc5c(c4)OCO5)c2c1OC)CNC3=O
26 | 323 to 326 °C | Cn1nc2c(N)nc3ncccc3c2c1CC(C)(C)C
27 | 198 to 199 °C | CS(=O)(=O)c1ccc(CC(=S)N2CCOCC2)cc1
28 | 89 °C | Cc1c(OCc2ccccc2)c(=O)ccn1CC(=O)NCCCCNCCCNC(=O)Cn1ccc(=O)c(OCc2ccccc2)c1C
29 | 114 °C | CCOC(=O)C(SC)=C(O)C1C(C(=O)O)C1(C)C (centres undefined)
30 | 218 to 220 °C | CCOC(=O)c1ncn2c1c(=O)n(C)c1ccccc12
31 | 116 °C | COC(=O)c1cc(-c2ccccc2)c(=O)n2c1-c1sccc1CC2
32 | 118 to 121 °C | O=C(O)CCC(NC(=O)c1ccc(-c2ccccc2OC2OC(CO)C(O)C(O)C2O)cc1)C(=O)O (centres undefined)
33 | 181 to 182 °C | CNc1nc(Cl)nc2c1ncn2C1CC(F)C(CO)O1 (centres undefined)
34 | 170 to 172 °C | CCN(CC)CCC1CCN(CCNC(=O)N2c3ccccc3C(=O)Nc3cccnc32)CC1
35 | 230 to 232 °C | C=CC[C@H](C(N)=O)[C@@H](CC(C)C)C(=O)NC1N=C(N(C)C)c2ccccc2N(C)C1=O (some centres undefined)
36 | 165 to 173 °C | CCC(=O)C(=Cc1cc(O)c(O)c(C#N)c1)C(=O)CC
37 | 139 to 140 °C | CC(C)Nc1cccnc1N1CCN(C(=O)c2ccc(C(=O)N[C@H](CO)CC3CCCCC3)cc2)CC1
38 | 241 °C | Cn1cnc(COc2nn3c(-c4ccccc4)nnc3cc2-c2ccoc2)n1
39 | 88 to 89 °C | CC(C)(C)C1=C(c2cc3cc(O[Si](C)(C)C(C)(C)C)ccc3s2)OCC1(C)C
40 | 184 to 186 °C | COc1ccc(-c2cnc(C3(c4ccc(OC)c(OC)c4)NCCc4c3[nH]c3ccccc43)nc2)cc1OC (centres undefined)
41 | 140 to 142 °C | O=C1CCC(=O)N1Cc1cccc(Nc2n[nH]c3ncnc(Nc4cccc(Cl)c4)c23)c1
42 | 140 to 144 °C | CC(C)Cn1c(=O)n(C)c(=O)c2c(SCCN(C)C)n(Cc3cccc4ccccc34)cc21
43 | 145 to 147 °C | Cc1cc(OCc2nc3ccccc3s2)ccc1[N+](=O)[O-]
44 | 50 to 52 °C | OCc1cc(Cl)c(F)cn1
45 | 139 to 141 °C | CCc1nc2c(-c3cc4ccoc4cc3C)ncnc2n1C(C1CC1)C1CC1
46 | 244 °C | O=C(N[C@H]1CC[C@H](CCN2CCN(c3nccc4c3OCC4)CC2)CC1)c1ccc(Cl)cc1Cl
47 | 36 °C | CCCCCCCCc1ccc(OC(=O)c2ccc([C@H]3CC[C@H](CCC)C3)cc2)cc1 (relative stereo)
48 | 174 °C | Cc1cc(NCCO)c([N+](=O)[O-])cc1O

Row | melting point | SMILES
49 | 71 to 73 °C | COC(=O)[C@@H]1O[C@@H](c2ccccc2)N(NS(=O)(=O)c2c3ccccc3cc3ccccc23)[C@H]1c1ccccc1
50 | 123 to 124 °C | COC(=O)CCc1oc(-c2ccc3c(c2)OCO3)nc1-c1ccc(Cl)cc1
51 | 174 °C | CCN1c2ncc(CCc3ccncc3)cc2C(=O)N(C)c2ccc(I)nc21
52 | 91 to 95 °C | CC(=O)OCn1cc(C#N)c(-c2ccccc2Cl)c1
53 | 193 to 194 °C | CC(C)CC(NC(=O)c1ccc(Cl)cc1)NC(=NC#N)Nc1cccnc1 (centres undefined)
54 | 143 to 145 °C | O=C(O)C(CC1CCCC1)c1ccc(S(=O)(=O)C(F)(F)F)cc1 (centres undefined)
55 | 123 °C | Cc1cncc(CNC(=O)c2sc(N3CCN(CCCC(F)(F)F)C3=O)nc2C)n1
56 | 253 to 255 °C | O=c1[nH]c(=S)[nH]c(-c2ccccc2)c1Cc1c(O)ccc2ccccc12
57 | 101 to 103 °C | CCOC(=O)c1cnn(-c2cc(Cl)cc(Cl)c2)c1C#N
58 | 157 to 160 °C | CCOC(=O)c1cnn(-c2cccc(N(C)C)n2)c1S(N)(=O)=O
59 | 151 to 153 °C | CC(C)c1ccc2c(c1)c(Sc1ccccc1)c(CC(=O)O)n2Cc1ccc(Cl)cc1
60 | 177 to 185 °C | CCc1c(N)c(C(N)=O)nn1Cc1cccnn1
61 | 190 to 193 °C | Cc1nc(-c2cc(Cl)ccc2Cl)n2c1nnc1ccc(-c3cc(Cl)ccc3Cl)cc12
62 | 98 to 100 °C | c1cn(CCCOc2ccc(-c3noc(C4CC4)n3)cc2)cn1
63 | 107 to 108 °C | Fc1ccccc1N1CCN(Cc2cn3cc(Cl)ccc3n2)CC1
64 | 115 to 116 °C | O=C(NCc1ccccn1)c1cc(OCC(F)(F)F)ccc1OCc1ccccc1
65 | 138 to 139 °C | COc1cc(COc2nn(C)cc2C(=O)N(C)OC)ccc1OCc1nc(-c2ccccc2)oc1C
66 | 211 to 213 °C | CCn1c(=O)c(C(=O)NN)c(O)c2ccc(C)nc21
67 | 202 to 205 °C | O=C(NC1CCOCC1)c1ccc(-c2ccc3nnn(Cc4ccc5ncccc5c4)c3n2)cc1
68 | 135 to 142 °C | Cc1ccc([N+](=O)[O-])cc1NC(=N)N
69 | 142 to 145 °C | O=C(O)C(Cc1ccccc1)C(=O)NCc1cccc2ccccc12 (centres undefined)
70 | 59 °C | CC(=O)CC(=O)c1ccc2c3c(cccc13)CC2
71 | 82 to 87 °C | COC(=O)C(O)C(CC(C)C)NC(=O)C(Cc1c[nH]cn1)NC(=O)C(CC(=O)NCCc1ccccc1)Cc1cccc2ccccc12 (mixture of isomers)
72 | 168 to 169 °C | CCOCc1nc2c(N)nc3cc(-n4ccnc4)ccc3c2n1CCCOC

Row | melting point | SMILES
73 | 119 to 121 °C | CN(Cc1ccccc1)C(=O)C[C@@H](Cc1ccccc1)C(=O)O
74 | 173 to 175 °C | CCOc1ccc2c(c1)C(N)(c1ccccc1Cl)C(=O)N2 (centres undefined)
75 | 85 to 86 °C | Cc1noc(CN2CCC[C@@H](OCc3cc(C(F)(F)F)cc(C(F)(F)F)c3)[C@H]2c2ccccc2)n1 (relative stereo)
76 | 162 to 164 °C | COC(=O)NN=Cc1nc(-c2cccc(C)c2)[nH]c1C
77 | 103 °C | CS(=O)(=O)NC(=O)CCCCCCCCCCCNC(=O)NC12CC3CC(CC(C3)C1)C2
78 | 360 to 362 °C | CCOC(=O)c1cn(C)c2nc3cc(Cl)c(F)cc3cc2c1=O
79 | 180 to 182 °C | CCOc1c(N)c2c(c(OCC)c1OCC)C(C1c3c(cc4c(c3OC)OCO4)CCN1C)OC2=O (centres undefined)
80 | 244 to 248 °C | Cc1nc2cc(-c3ccccc3)nn2c2c1CCN2C(C)(C)C
81 | 222 °C | COc1ccc2oc3ccc([N+](=O)[O-])cc3c2c1C(=O)Nc1ccncc1
82 | 221 to 224 °C | Nc1c(-c2cccs2)nsc1C(=O)O
83 | 149 to 150 °C | CS(=O)(=O)c1ccc(C(CC2CCCC2)C(=O)O)cc1Br (centres undefined)
84 | 62.9 °C | CCCCCCCCCCCCCCOc1ccc(CBr)cc1CBr
85 | 174 to 176 °C | O=C1CN(Cc2ccccc2)c2cc(Br)ccc2N1
86 | 61 to 65 °C | CC(C)(C)c1ccc(-c2cc(-c3cccs3)[nH]n2)cc1
87 | 100 to 101 °C | FC(F)(F)COc1ccccc1Sc1nc[nH]n1
88 | 186 to 187 °C | COc1cc2c(cc1OC)C1=C(C#N)SCC(=O)N1CC2
89 | 117 to 118 °C | O=C1NC(C(=O)NCCO[N+](=O)[O-])C(c2ccco2)S1 (centres undefined)
90 | > 330 °C | CCCCCc1cc(O)c2c(c1)OC(C)(C)[C@H]1CC=C(C(=O)NCC(O)CNC(=O)c3ccc4c(c3)C(=O)OC43c4ccc(O)cc4Oc4cc(O)ccc43)C[C@H]21 (some centres undefined)
91 | 99 to 100 °C | COCCNC(=O)c1cccc(-c2ccc3c(c2)N(c2cccc(Cl)c2Cl)CC3)c1
92 | > 250 °C | CS(=O)(=O)c1ccc2c(C=C[N+](=O)[O-])c[nH]c2c1
93 | 118 to 120 °C | COc1ccc(-c2cc(=O)n(C)c(=O)n2C)cc1OC

Row | SMILES | melting point
94 | COC(=O)CCC(=O)c1ccc(Br)cc1 | 49 to 51 °C
95 | CC1(C)CCC(C)(C)c2cc(-c3csc(C=CC(=O)O)c3)ccc21 | 182 to 185 °C
96 | CN1CCN(c2nc3cccc4c3n2CCC4)CC1 | 112 to 113 °C
97 | N#CC1CN1C(=O)c1ccccn1 (centres undefined) | 124 to 127 °C
98 | CC(C)CCN1C(=O)C(NC(=O)Oc2ccccc2)C(=O)N(c2ccccc2)c2ccc(F)cc21 (centres undefined) | 160 to 165 °C
99 | CCCCC1=NC(=NOC(=O)NC)SC1(C)C | 128 to 130 °C
